Experimental data as given in patent publication US20110263647A1 (AMGEN INC., priority 2009, published 2011).
pIC50: −log10 of the molar value. Read-outs that look alike come from different tables or passages of the source.

What was measured:
CYP2D6 = molecular target: T1, CYP2D6 (Homo sapiens, UniProt P10635); test: CYP2D6 inhibition assay (bufuralol, pooled human liver microsomes); type: in vitro ADME; conditions: pH 7.4, probe bufuralol (5 μM), test compound 3 μM, human liver microsomes 0.25 mg/mL
T1 construct: tissue XenoTech LLC Lot 0610351; host or cells: pooled human liver microsomes
Method: (§1) Midazolam was obtained from BD Gentest (Waltham, Mass.); 1′ hydroxy midazolam and 1-hydroxy bufuralol maleate were obtained from Ultrafine Chemicals (Manchester, UK); bufuralol HCl, ketoconazole, quinidine, potassium phosphate, and NADPH were obtained from Sigma (St. Louis, Mo.). Test compounds were prepared at 10 mM concentration in DMSO (Mallinckrodt Inc., St. Louis, Mo.). NADPH was prepared at 10 mM concentration in a pH 7.4 buffer (8.3 mg/mL 66.7 mM potassium phosphate). Midazolam was prepared at 1 mM concentration in deionized water (Amgen, Thousand Oaks, Calif.), and bufuralol was prepared at 2 mM concentration in deionized water. A stock solution of ketoconazole was prepared at 37 mM concentration in DMSO, and quinidine was prepared at 500 uM concentration in DMSO. Formic acid in acetonitrile (0.05%, ACN) was used as a quench solution (Sigma-Aldrich, St. Louis, Mo.). All solvents used for LC/MS were of chromatographic grade. Pooled human liver microsomes (Lot 0610351) were purchased from XenoTech LLC, (Lenexa, Kans.).
Pooled human liver microsomes (0.25 mg/mL) were incubated at 37° C. in a phosphate buffer (66.7 mM potassium phosphate at pH 7.4) with the selective CYP2D6 substrate bufuralol at a concentration of 5 μM in the presence and absence of test compound (3 μM). The reaction was started with the addition of NADPH (1 mM final concentration). The reaction was stopped after 10 minutes by addition of formic acid in acetonitrile. 1-Hydroxybufuralol metabolite formation was measured by an HPLC MS detection method (mobile phases for HPLC were: 0.1% AcOH in 5% MeOH, and 0.1% AcOH in 95% MeOH; the HPLC column was an Onyx Monolithic C18 CHO-7645 HPLC column from Phenomenex; Shimadzu LC-10ADVP equipped Biomek FX Liquid handling system and CTC Analytics PAL well auto-sampler; Mass spectrometer: Applied Biosystems API 3000 using Analyst 1.4.1 software). Inhibition was determined by the ratio of the amount of 1-hydroxy bufuralol metabolite formed metabolite in the presence of test compound to the amount of metabolite in the absence of test compound.

CYP3A4 = molecular target: T2, CYP3A4 (Homo sapiens, UniProt P08684); test: CYP3A4 inhibition assay (midazolam, pooled human liver microsomes); type: in vitro ADME; conditions: pH 7.4, probe midazolam (2.5 μM), test compound 3 μM, human liver microsomes 0.1 mg/mL
T2 construct: tissue XenoTech LLC Lot 0610351; host or cells: pooled human liver microsomes
Method: as §1
Pooled human liver microsomes (0.1 mg/mL) were incubated at 37° C. in a phosphate buffer (66.7 mM potassium phosphate at pH 7.4) with the selective CYP3A substrate midazolam at a concentration of 2.5 μM in the presence and absence of test compound (3 μM). The reaction was started with the addition of NADPH (1 mM final concentration). The reaction was stopped after 10 minutes by addition of formic acid in acetonitrile. 1′-Hydroxymidazolam metabolite formation was measured by an HPLC MS detection method (mobile phases were 0.1% AcOH in 5% MeOH, and 0.1% AcOH in 95% MeOH; the HPLC column was an Onyx Monolithic C18 CHO-7645 HPLC column obtained from Phenomenex; Shimadzu LC-10ADVP equipped Biomek FX Liquid handling system and CTC Analytics PAL well auto-sampler; Mass spectrometer: Applied Biosystems API 3000 using Analyst 1.4.1 software). Inhibition was determined by the ratio of the amount of 1′-hydroxy midazolam metabolite formed in the presence of test compound to the amount of metabolite found in the absence of test compound Inhibition was measured relative to the rate of formation of 1′-hydroxy midazolam incubated at 2.5 μM without test compound.

[1] = In vivo pharmacokinetics, IV and oral gavage; design: species or system male Sprague-Dawley rats; conditions: rat; for FPO: Table 5; for Fpo (%): Table 6; for clearance / AUC(0-t) / Cmax / Vd: male, Sprague-Dawley, plasma; for Vd: read-out: Vss
Method: In vivo pharmacokinetic parameters were determined by measuring systemic plasma exposure in male Sprague-Dawley rats (Charles River Laboratories or Taconic, Oxnard, Calif.) by intravenous administration (N=3 fed rats: 2 mg/kg tail vein injection in DMSO) and oral gavage (N=3 fasted rats: 5 mg/kg in 1% Tween 80-2% HPMC-97% deionized water-pH 2.0 vehicle) (Comparative Example 18′ was only dosed IV and at 0.5 mg/kg). DMSO was obtained from Mallinckrodt Inc.; Tween 80 was obtained from Croda; HPMC is Methocel E50 Premium LV, obtained from Dow Excipients. Following oral administration, blood was drawn (250 μL) at 0.25, 0.5, 1, 2, 4, 6, 8, 12, and 16 hours. Following iv administration, blood was drawn (250 μL) at 0.083, 0.25, 0.5, 1, 2, 4, 6, 8, and 16 hours. Blood samples were drawn using a Culex® In Vivo Sampling System (BASi) and collected in BD Microtainer® tubes containing Lithium Heparin (BD). Plasma was obtained by centrifugation of blood at 14000 g and 2-8° C. for five minutes using an Eppendorf 5417R Centrifuge System. Plasma samples were mixed with 2× volume of acetonitrile (Sigma-Aldrich, St. Louis, Mo.). The mixture was stirred briefly using a vortex mixer and then centrifuged at 2867 g for 5 minutes in a Beckman Coulter Allegra 25R equipped with a Type S5700 rotor. The supernatant was removed and diluted 2× with mobile phase A (5/94.9/0.1 v/v/v MeOH/water/AcOH). Plasma concentrations were determined using liquid chromatography/tandem mass spectrometry, with electrospray ionization (ESI) and multiple reaction monitoring in the positive ion mode (Sciex API 3000 mass spectrometer connected to a Shimadzu LC-20AD pump and a LEAP PAL autosampler. Typical conditions used for HPLC were: mobile phase A=5/94.9/0.1 v/v/v MeOH/water/AcOH and mobile phase B=95/4.9/0.1 v/v/v MeOH/water/AcOH; HPLC column was a Varian MonoChrom C18.3μ for 2×30 mm and 51.1 for 2×50 mm) Instrument response was calibrated by a standard curve over 0.1-2000 ng/mL concentration range, and the lower limit of quantitation was 0.1-2.5 ng/mL. Peak areas were integrated on a Windows 2000 computer using the Sciex program Analyst® (Version 1.4.1). Following peak area integration, the data were exported to the software package (Watson® Non-GLP PROD (Version 7.0.0.01, Thermo Electron Corp., Waltham, Mass.)), where concentrations were determined by a weighted linear regression of peak area versus the nominal concentrations of the calibration standards. Calculations were performed on unrounded numbers. The Watson® Non-GLP PROD software was used to determine precision and accuracy for the calibration standards. Noncompartmental analysis of plasma concentration data was used to generate PK parameters such as clearance (CL, L/h/kg), volume of distribution (Vss, L/kg), area under the curve (AUC, ng·h/mL) and secondary parameters such as half-life (t1/2, h) and oral bioavailability (% F, %). This was done using WinNonlin Enterprise software (Version 5.1.1, from Pharsight Corp., Mountain View, Calif.). References for pharmacokinetic analysis include: Gabrielsson and Weiner (1997) Pharmacokinetic and Pharmacodynamic Data Analysis Concepts and Applications, 2nd ed., Swedish Pharmaceutical Press, Stockholm; Gibaldi and Perrier (1982) Pharmacokinetics, 2nd ed., Marcel Dekker, New York. Rowland and Tozer (1995) Clinical Pharmacokinetics: Concepts and Applications, 3rd ed., Lippincott Williams & Wilkins, Philadelphia.

PKBα = molecular target: T3, PKBα (Homo sapiens, UniProt P31749); test: PKB kinase assay (P33-labeled ATP, peptide substrate, filter plate); type: biochemical; conditions: with respect to PKBα
T3 construct: fused on or other part: His6 tag is likely on the Upstate products
Description: The kinase assay for evaluating PKB activity comprises active PKB enzymes, a PKB specific substrate, and P^33-labeled ATP. Two form of PKBα enzymes were used, the full length PKBα and a kinase domain of PKBα with pleckstrin domain (amino acids 1-117) deleted. Both PKB enzymes were obtained from Upstate cell signaling solutions (Cat.# 14-276 and 14-341). The PKB substrate used is a synthetic peptide (ARKRERTYSFGHHA (SEQ ID NO: 1)) as described in Obata et al., J. Biol. Chem. 275 (46), 36108-36115 (2000). The phosphorylated substrate was captured by a phosphocellulose membrane filter plate (MILLIPORE) and measured by a Wallac Microbeta liquid scintillation counter (Perkin Elmer). Table 1 provides the IC50 values obtained for each of the examples with respect to PKBα.

[2] = IV 2 mg/kg, read-out: IV AUClast
[3] = PO 5 mg/kg, read-out: Oral AUClast
[4] = PO 5 mg/kg, read-out: Oral Cmax

T3 sequence (P31749 118-472 limits assumed): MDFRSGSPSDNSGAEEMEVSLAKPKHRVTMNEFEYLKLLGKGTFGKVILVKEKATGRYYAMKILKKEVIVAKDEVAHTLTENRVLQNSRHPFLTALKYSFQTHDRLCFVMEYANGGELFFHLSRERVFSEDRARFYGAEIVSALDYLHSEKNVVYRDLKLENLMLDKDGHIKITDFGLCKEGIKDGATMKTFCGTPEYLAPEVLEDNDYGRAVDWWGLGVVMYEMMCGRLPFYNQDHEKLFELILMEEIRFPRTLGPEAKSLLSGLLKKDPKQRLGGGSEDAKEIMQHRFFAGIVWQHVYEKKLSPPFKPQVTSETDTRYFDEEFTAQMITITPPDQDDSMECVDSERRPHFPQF
T2 sequence (P08684 whole entry): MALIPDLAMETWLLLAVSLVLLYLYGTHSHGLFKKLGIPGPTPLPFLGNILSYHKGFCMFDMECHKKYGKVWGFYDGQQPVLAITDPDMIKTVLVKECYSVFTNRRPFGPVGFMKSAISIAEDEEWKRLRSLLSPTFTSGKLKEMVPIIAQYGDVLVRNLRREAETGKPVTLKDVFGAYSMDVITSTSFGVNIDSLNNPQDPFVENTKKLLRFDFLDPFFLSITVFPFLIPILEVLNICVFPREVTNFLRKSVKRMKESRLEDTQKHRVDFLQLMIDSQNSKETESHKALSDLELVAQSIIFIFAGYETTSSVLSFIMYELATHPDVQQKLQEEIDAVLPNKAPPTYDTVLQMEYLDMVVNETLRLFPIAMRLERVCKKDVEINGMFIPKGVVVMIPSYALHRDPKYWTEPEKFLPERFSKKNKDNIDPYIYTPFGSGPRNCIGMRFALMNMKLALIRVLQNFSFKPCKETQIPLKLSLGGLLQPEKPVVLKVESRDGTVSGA
T1 sequence (P10635 whole entry): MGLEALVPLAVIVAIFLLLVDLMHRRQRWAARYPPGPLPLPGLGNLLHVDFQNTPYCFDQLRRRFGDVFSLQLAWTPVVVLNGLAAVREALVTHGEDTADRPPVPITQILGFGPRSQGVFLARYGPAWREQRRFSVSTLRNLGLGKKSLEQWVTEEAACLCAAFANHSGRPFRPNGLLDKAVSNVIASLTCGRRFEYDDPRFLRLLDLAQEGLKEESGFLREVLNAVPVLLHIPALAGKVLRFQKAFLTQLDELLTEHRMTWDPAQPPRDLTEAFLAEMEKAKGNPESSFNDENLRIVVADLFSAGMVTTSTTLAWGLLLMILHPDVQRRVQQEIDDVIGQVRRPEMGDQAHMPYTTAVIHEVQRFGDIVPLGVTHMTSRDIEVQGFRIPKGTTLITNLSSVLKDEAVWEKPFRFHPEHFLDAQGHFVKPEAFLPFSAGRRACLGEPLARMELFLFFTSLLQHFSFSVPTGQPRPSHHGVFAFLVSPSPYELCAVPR

inhibition at 10 min, 3 μM (CYP2D6) [%] | inhibition at 10 min, 3 μM (CYP3A4) [%] | FPO ([1]; PO 5 mg/kg, IV 2 mg/kg) [%] | Fpo (%) ([1]; PO 5 mg/kg, IV 2 mg/kg) | clearance ([1]; IV 2 mg/kg) [mL/min/kg] | AUC(0-t) [1, 2] [ng·h/mL] | Cmax ([1]; IV 2 mg/kg, read-out: IV Cmax) [ng/mL] | Vd ([1]; IV 2 mg/kg) [L/kg] | AUC(0-t) [1, 3] [ng·h/mL] | Cmax [1, 4] [ng/mL] | pIC50 (PKBα) | SMILES
94 | 100 | 5 | 5 | 37.4 | 870 | 1260 | 2.32 | 117 | 29 |  | N[C@H](CNc1ncc(-c2ccc3cnccc3c2)s1)Cc1ccc(C(F)(F)F)nc1 [2′, reference compound]
78 | 87 | 27 | 20 | 50.9 | 651 | 422 | 6.17 | 432 | 86 |  | N[C@H](CNc1ncc(-c2ccc3cnccc3c2)s1)Cc1ccc(C(F)(F)F)cc1 [4′, reference compound]
79 | 86 | 4 | 3 | 97.9 | 336 | 490 | 4.55 | 30 | 8 |  | CC(F)(F)c1ccc(C[C@H](N)CNc2ncc(-c3ccc4cnccc4c3)s2)cn1 [7′, reference compound]
86 | 94 | 12 | 25 | 19.1 | 1680 | 730 | 9.46 | 487 | 73 |  | C[C@@H](c1ccc(C(F)(F)F)cc1)[C@H](N)CNc1ncc(-c2ccc3cnccc3c2)s1 [10′, reference compound]
94 | 100 | 14 | 19 | 90.1 | 369 | 465 | 10.2 | 129 | 51 |  | COCc1nc(NC[C@@H](N)Cc2ccc(C(F)(F)F)cc2)sc1-c1ccc2cnccc2c1 [24′, reference compound]
88 | 91 | 12 | 10 | 47.5 | 691 | 797 | 4.18 | 199 | 23 |  | N[C@H](CNc1ncc(-c2ccc3cnccc3c2)s1)[C@@H](CO)c1ccc(C(F)(F)F)cc1 [33′, reference compound]
 |  |  |  |  |  |  |  |  |  | > 7.30 | N[C@H](CNc1ncc(-c2ccc3cnc(F)cc3c2)s1)Cc1ccc2c(c1)OCCO2 [Example 43, N—((S)-2-Amino-3-(2,3-dihydrobenzo[b][1,4]dioxin-6-yl)propyl)-5-(3-fluoroisoquinolin-6-yl)thiazol-2-amine]
 |  |  |  |  |  |  |  |  |  | 6.00 to 7.30 | COC(=O)c1ccc(C[C@H](N)CNc2ncc(-c3ccc4cnc(F)cc4c3)s2)cc1 [Example 45]
 |  |  |  |  |  |  |  |  |  | 6.00 to 7.30 | Cn1ccc(C[C@H](N)CNc2ncc(-c3ccc4cnc(F)cc4c3)s2)cc1=O [Example 46]
 |  |  |  |  |  |  |  |  |  | 5.00 to 6.00 | N[C@@H](CNc1ncc(-c2ccc3cnc(F)cc3c2)s1)Cc1ccc(C(F)(F)F)nc1 [Example 47, (2R)—N^1-(5-(3-Fluoro-6-isoquinolinyl)-1,3-thiazol-2-yl)-3-(6-(trifluoromethyl)-3-pyridinyl)-1,2-propanediamine]
 |  |  |  |  |  |  |  |  |  | 5.00 to 6.00 | N[C@H](CCc1ncc(-c2ccc3cnc(F)cc3c2)s1)Cc1ccc(C(F)(F)F)cc1 [Example 48, (2R)-4-(5-(3-Fluoroisoquinolin-6-yl)thiazol-2-yl)-1-(4-(trifluoromethyl)phenyl)butan-2-amine]
 |  |  |  |  |  |  |  |  |  | > 7.30 | COCc1nc(CC[C@@H](N)Cc2ccc(C(F)(F)F)nc2)sc1-c1ccc2cnc(F)cc2c1 [Example 49, (2R)-4-(5-(3-Fluoroisoquinolin-6-yl)-4-(methoxymethyl)thiazol-2-yl)-1-(6-(trifluoromethyl)pyridin-3-yl)butan-2-amine]
